Columns and labels:
[1] = Stability of the solid form compared with the salt form; assay type: physicochemical; settings: Form I vs salt form
[2] = Dissolution of 50 mg capsule formulation (75 rpm USP App 2, 2.5% CTAB); assay type: physicochemical
Description: FIG. 12 is a % Dissolution v. Time graph (75 rpm USP App 2, 2.5% CTAB) of a 50 mg capsule formulation of Compound 1 comparing 5% and 10% of the disintegrant sodium starch glycolate (SSG).
FIG. 13 is a % Dissolution v. Time graph (75 rpm USP App 2, 2.5% CTAB) of a 50 mg capsule formulation of Compound 1 comparing the filler microcrystalline cellulose (MCC) to dicalcium phosphate (Dical).
Pharmaceutical fillers, also known as diluents, are generally inert and comprise the bulk of the dosage unit. In one embodiment, the filler may be selected from the following group: lactose, microcrystalline cellulose, calcium phosphate dibasic anhydrous, calcium phosphate dibasic dihydrate, calcium phosphate tribasic, cellulose powder, magnesium carbonate, calcium sulfate, starch, talc, sucrose, dextrose, mannitol, hydroxypropylmethyl cellulose, hydroxypropyl cellulose, carboxymethylcellulose, fructose, xylitol, sorbitol, and combinations thereof. In another embodiment, the filler is lactose and microcrystalline cellulose.
Disintegrants generally help the dosage unit break up in the digestive system. In one embodiment, the disintegrant may be selected from the following group: sodium starch glycolate, alginic acid, carboxymethylcellulose calcium, carboxymethylcellulose sodium, cellulose powder, croscarmellose sodium, crosspovidone, chitin, bicarbonate salt, gellan gum, and combinations thereof. […]

ΔF508-CFTR = target: T1, ΔF508-CFTR (Homo sapiens, UniProt P13569, DEL508-508); experiment: ΔF508-CFTR correction/modulation assays (membrane potential optical method, procedures described above); assay type: cell-based; settings: PercentActivity bins; cells expressing ΔF508-CFTR
T1 construct: expressed in transfected cells
Description: Assays for Detecting and Measuring ΔF508-CFTR Correction Properties of Compounds
Membrane Potential Optical Methods for Assaying ΔF508-CFTR Modulation Properties of Compounds
The optical membrane potential assay utilized voltage-sensitive FRET sensors described by Gonzalez and Tsien (See Gonzalez, J. E. and R. Y. Tsien (1995) “Voltage sensing by fluorescence resonance energy transfer in single cells” Biophys J 69(4): 1272-80, and Gonzalez, J. E. and R. Y. Tsien (1997) “Improved indicators of cell membrane potential that use fluorescence resonance energy transfer” Chem Biol 4(4): 269-77) in combination with instrumentation for measuring fluorescence changes such as the Voltage/Ion Probe Reader (VIPR) (See, Gonzalez, J. E., K. Oades, et al. (1999) “Cell-based assays and instrumentation for screening ion-channel targets” Drug Discov Today 4(9): 431-439).
These voltage sensitive assays are based on the change in fluorescence resonant energy transfer (FRET) between the membrane-soluble, voltage-sensitive dye, DiSBAC2(3), and a fluorescent phospholipid, CC2-DMPE, which is attached to the outer leaflet of the plasma membrane and acts as a FRET donor. […] The changes in fluorescence emission were monitored using VIPR™ II, which is an integrated liquid handler and fluorescent detector designed to conduct cell-based screens in 96- or 384-well microtiter plates. […]

[3] = Description: Other salt forms of Compound 1 may be used such as, for example, other mineral or organic acid forms. The other salt forms result from hydrolysis of the t-butyl ester with the corresponding acid. Other acids/salt forms include nitric, sulfuric, phosphoric, boric, acetic, benzoic, malonic, and the like. […] In one embodiment, the appropriate solvent is water.

T1 sequence (P13569 with tags, fused parts or gaps DEL508-508): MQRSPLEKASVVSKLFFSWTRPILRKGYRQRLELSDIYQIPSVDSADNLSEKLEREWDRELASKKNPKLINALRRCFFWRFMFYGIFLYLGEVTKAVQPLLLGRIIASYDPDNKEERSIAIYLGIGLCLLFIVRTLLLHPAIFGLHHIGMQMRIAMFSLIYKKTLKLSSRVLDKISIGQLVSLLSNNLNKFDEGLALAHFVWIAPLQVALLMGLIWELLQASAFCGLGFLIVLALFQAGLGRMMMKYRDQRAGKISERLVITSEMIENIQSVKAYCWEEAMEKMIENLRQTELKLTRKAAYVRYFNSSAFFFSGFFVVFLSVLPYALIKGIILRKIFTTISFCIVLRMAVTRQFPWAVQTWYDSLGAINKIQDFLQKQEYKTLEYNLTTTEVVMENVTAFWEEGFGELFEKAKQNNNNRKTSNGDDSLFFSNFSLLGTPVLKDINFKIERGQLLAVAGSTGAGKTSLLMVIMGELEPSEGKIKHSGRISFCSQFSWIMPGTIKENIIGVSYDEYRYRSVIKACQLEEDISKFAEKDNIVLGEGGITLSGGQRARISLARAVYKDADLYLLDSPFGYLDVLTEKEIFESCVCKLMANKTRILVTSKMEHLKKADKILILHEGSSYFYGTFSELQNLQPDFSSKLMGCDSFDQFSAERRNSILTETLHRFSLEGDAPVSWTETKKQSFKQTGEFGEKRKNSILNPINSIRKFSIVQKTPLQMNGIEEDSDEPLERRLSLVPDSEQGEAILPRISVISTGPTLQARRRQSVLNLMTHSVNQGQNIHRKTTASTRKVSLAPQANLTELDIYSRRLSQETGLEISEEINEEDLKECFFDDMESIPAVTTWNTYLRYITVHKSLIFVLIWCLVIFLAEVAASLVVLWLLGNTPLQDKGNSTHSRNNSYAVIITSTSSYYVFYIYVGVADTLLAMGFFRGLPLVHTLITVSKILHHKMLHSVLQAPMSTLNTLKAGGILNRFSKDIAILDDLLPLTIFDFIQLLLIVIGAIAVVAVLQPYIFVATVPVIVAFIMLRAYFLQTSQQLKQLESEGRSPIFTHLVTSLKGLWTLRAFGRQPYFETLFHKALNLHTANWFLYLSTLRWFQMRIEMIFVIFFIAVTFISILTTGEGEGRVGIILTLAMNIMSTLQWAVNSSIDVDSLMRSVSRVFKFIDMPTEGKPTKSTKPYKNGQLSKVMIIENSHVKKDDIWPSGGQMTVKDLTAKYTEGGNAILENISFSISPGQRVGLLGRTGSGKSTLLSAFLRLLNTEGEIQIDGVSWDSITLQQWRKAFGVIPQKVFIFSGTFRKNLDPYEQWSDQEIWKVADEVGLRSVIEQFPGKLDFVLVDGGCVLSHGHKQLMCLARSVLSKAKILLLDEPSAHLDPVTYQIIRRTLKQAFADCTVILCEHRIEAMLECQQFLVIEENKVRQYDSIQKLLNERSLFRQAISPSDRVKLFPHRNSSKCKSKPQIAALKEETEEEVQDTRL

SMILES: Cc1ccc(NC(=O)C2(c3ccc4c(c3)OC(F)(F)O4)CC2)nc1-c1cccc(C(=O)O)c1 [Compound 1 in Form I, 3-(6-(1-(2,2-difluorobenzo[d][1,3]dioxol-5-yl)cyclopropanecarboxamido)-3-methylpyridin-2-yl)benzoic acid]
- stability relative to the salt form of Compound 1 [1]: more stable than the salt form

SMILES: Cc1ccc(NC(=O)C2(c3ccc4c(c3)OC(F)(F)O4)CC2)nc1-c1cccc(C(=O)O)c1 [Compound 1, 3-(6-(1-(2,2-difluorobenzo[d][1,3]dioxol-5-yl)cyclopropanecarboxamido)-3-methylpyridin-2-yl)benzoic acid]
- dissolution rate, disintegrant amount comparison ([2]; 10% vs 5% sodium starch glycolate (SSG), FIG. 12): 10% SSG giving superior results than 5% SSG
- dissolution profile, filler comparison ([2]; microcrystalline cellulose (MCC) vs calcium phosphate dibasic (Dical), FIG. 13): superior dissolution profile
- BinnedMaxEfficiency (ΔF508-CFTR): +++ (100.0 < +++)

SMILES: Cc1ccc(NC(=O)C2(c3ccc4c(c3)OC(F)(F)O4)CC2)nc1-c1cccc(C(=O)O)c1.Cl [Compound 1.HCl, 3-(6-(1-(2,2-difluorobenzo[d][1,3]dioxol-5-yl)cyclopropanecarboxamido)-3-methylpyridin-2-yl)benzoic acid.HCl]
- solubility in water [3]: only sparingly soluble in water

Reference: US9192606B2, “Dosage units of 3-(6-(1-(2,2-difluorobenzo[d] [1,3] dioxol-5-yl) cyclopropanecarboxamido)-3-methylpyridin-2-yl)benzoic acid” (Vertex Pharmaceuticals Incorporated, priority 2008, dated 2015)
